Data on 28 compounds can be found in EP0095294A1, “Deoxyuridine compounds, methods for preparing them and their use in medicine” (priority 1982, dated 1983).

Format in all cases: cell-based
A short description of data set [1]: in vitro. Conditions: african green monkey, vero cells. As to the method: (§1) Vero (African Green Monkey Kidney) cells were grown to confluence in 24 well multidishes, each well being 1.6cm in diameter. The cells were infected with Herpes simplex type 1 virus (HFEM strain) and overlaid with 0.5ml of 0.9% agarose (w/v) in maintenance medium. Test compounds prepared in maintenance medium in concentrations ranging from 100 to 0.03pg/ml in half-log dilution steps, were added in 0.5ml volume. The virus infected cultures were then incubated at 37° for 4 days before fixing in 4% formaldehyde solution and staining with carbolfuchsin.

Data set [2] concerns Herpes simplex type 1 virus (HFEM strain). Nature of the data set: Plaque reduction test in virus-infected Vero cells. As to the method: as §1
For orientation: Plaque reduction counts the foci of infection that form in a cell layer.

The nature of data set [3]: in vitro. Conditions: african green monkey; minimum concentration of test compound which caused cytotoxicity; Vero cells, 4 days at 37°; highest concentration tested 100; read-out: MTD.
The test system of data set [4] is Vero (African Green Monkey Kidney) cells. Put plainly: in vitro. Conditions: minimum concentration of test compound which caused cytotoxicity; Vero cells, 4 days at 37°; highest concentration tested 100. The protocol: as §1
[5] abbreviates: Human alphaherpesvirus 1, 96 h, concentration causing 50% reduction in number of virus plaques, HSV-1 HFEM strain, 4 days at 37°, molar units, read-out: PDD50 (the source's name).
Setting [6] is: Human alphaherpesvirus 1, 96 h, concentration causing 50% reduction in number of virus plaques, HSV-1 HFEM strain, 4 days at 37°, read-out: PDD50 (the source's name).
The mark [7] stands for this setting: Human alphaherpesvirus 1, Vero, 96 h, read-out: PDD50, concentration causing 50% reduction in number of virus plaques, HSV-1 HFEM strain, 4 days at 37°.
The mark [8] stands for this setting: Human alphaherpesvirus 1, Vero, 96 h, read-out: PDD50, concentration causing 50% reduction in number of virus plaques, HSV-1 HFEM strain, 4 days at 37°, molar units.

Structures are written as SMILES. Counter-ions that a name gives are not always drawn. Like-named read-outs stand apart in the source and are kept apart here.

For `CC(C)OC(=O)OC[C@H]1O[C@@H](n2cc(/C=C/Br)c(=O)[nH]c2=O)C[C@@H]1O` [Example 25, 5-(E-2-Bromovinyl)-2'-deoxy-5'-0-isopropoxycarbonyluridine], in the data set “in vitro [1]”, the MCC at 96 h was > 100 µg/mL. The IC50 was determined as 2100 nM in data set [2] (setting [5]) and 0.88 µg/mL in data set [2] (setting [6]).
`CCOC(=O)OC[C@H]1O[C@@H](n2cc(/C=C/Br)c(=O)[nH]c2=O)C[C@@H]1OC(=O)OCC` [Example 4, 5-(E-2-Bromovinyl)-2'-deoxy-3',5'-bis-0-ethoxycarbonyluridine]: in “in vitro [1]”, the MCC at 96 h is > 100 µg/mL. Moreover, the IC50 in data set [2] (setting [5]) was determined as 2300 nM; in data set [2] (setting [6]), 1.1 µg/mL.
As to `C=Cc1cn([C@H]2C[C@H](O)[C@@H](COC(=O)OCC)O2)c(=O)[nH]c1=O` [Example 27, 2^1-Deoxy-5^1-O-ethoxycarbonyl-5-vinyluridine], the MCC at 96 h in the data set “in vitro [1]” is > 100 µg/mL. In addition, the figures for the IC50 in data set [2] (setting [5]) and in data set [2] (setting [6]) were 4600 nM and 1.5 µg/mL, respectively.
For the compound `CCCCC(=O)n1c(=O)c(/C=C/Br)cn([C@H]2C[C@H](O)[C@@H](COC(=O)OCC)O2)c1=O` [Example 10, 5-(E-2-Bromovinyl)-2'-deoxy-5'-0-ethoxycarbonyl-3-valeryl-uridine], in “in vitro [1]”, the MCC at 96 h is > 100 µg/mL. Further, the values for the IC50 in data set [2] (setting [5]) and in data set [2] (setting [6]) were 6700 nM and 3.3 µg/mL, respectively.
Consider `CCOC(=O)OC[C@H]1O[C@@H](n2cc(/C=C/Br)c(=O)[nH]c2=O)C[C@@H]1OC(=O)CCC(=O)[O-].[Na+]`, for which the IC50 in data set [2] (setting [7]) is 6.3 µg/mL.
In the case of `O=C(OCCO)OC[C@H]1O[C@@H](n2cc(/C=C/Br)c(=O)[nH]c2=O)C[C@@H]1O` [Example 26, 5-(E-2-Bromovinyl)-2'-deoxy-5'-0-(2-hydroxyethox^ycarbonyl)-uridine], the MCC at 96 h in “in vitro [1]” was > 100 µg/mL. Besides, the values for the IC50 in data set [2] (setting [5]) and in data set [2] (setting [6]) were 1800 nM and 0.76 µg/mL, respectively.
`COC(=O)O[C@H]1C[C@H](n2cc(/C=C/Br)c(=O)[nH]c2=O)O[C@@H]1CO` [Example 2, 5-(E-2-Bromovinyl)-2'-deoxy-3'-0-methoxycarbonyluridine]: the MCC at 96 h in “in vitro [1]” is > 100 µg/mL. Also, the IC50 in data set [2] (setting [5]) worked out at 1900 nM; in data set [2] (setting [6]) it was 0.74 µg/mL.
Take `CC(C)(C)OC(=O)OC[C@H]1O[C@@H](n2cc(/C=C/Br)c(=O)[nH]c2=O)C[C@@H]1OC(=O)OC(C)(C)C` [Example 19, 5-(E-2-Bromovinyl)-3',5'-bis-O-t-butoxycarbonyl-2^1-deoxyuridine]: in “in vitro [1]”, the MCC at 96 h was > 100 µg/mL. Besides, the IC50 in data set [2] (setting [5]) is 3800 nM; in data set [2] (setting [6]), 2 µg/mL.
For the compound `CCOC(=O)n1c(=O)c(/C=C/Br)cn([C@H]2C[C@H](O)[C@@H](CO)O2)c1=O` [Example 7, 5-(E-2-Bromovinyl)-2'-deoxy-3-ethoxycarbonyluridine], the MCC at 96 h in the data set “in vitro [3]” was > 100 µg/mL. Further, the IC50 in data set [2] (setting [5]) was 12300 nM; in data set [2] (setting [6]), 5 µg/mL.
Consider `CCOC(=O)OC[C@H]1O[C@@H](n2cc(/C=C/Br)c(=O)[nH]c2=O)C[C@@H]1O` [Example 5, 5-(E-2-Bromovinyl)-2'-deoxy-5'-0-ethoxycarbonyluridine], for which the MCC at 96 h in the data set “in vitro [1]” was > 100 µg/mL. Moreover, the IC50 in data set [2] (setting [5]) is 700 nM; in data set [2] (setting [6]) it was 0.28 µg/mL.
As to `CCOC(=O)OC[C@H]1O[C@@H](n2cc(/C=C/Br)c(=O)[nH]c2=O)C[C@@H]1OP(=O)(O)O` [Example 13, 5-(E-2-Bromovinyl)-2'-deoxy-5'-0-ethoxycarbonyluridine 3'-Phosphate Monosodium Salt], the MCC at 96 h in the data set “in vitro [3]” is > 100 µg/mL. The IC50 in data set [2] (setting [5]) was determined as 7500 nM; in data set [2] (setting [6]) it was 3.8 µg/mL.
As to `CCCOC(=O)OC[C@H]1O[C@@H](n2cc(/C=C/Br)c(=O)[nH]c2=O)C[C@@H]1O` [Example 14, 5-(E-2-Bromovinyl)-2'-deoxy-5'-0-propoxycarbcnyluridine], the MCC at 96 h in the data set “in vitro [1]” is > 100 µg/mL. The figures for the IC50 in data set [2] (setting [5]) and in data set [2] (setting [6]) were 900 nM and 0.39 µg/mL, respectively.
Regarding `CCOC(=O)O[C@H]1C[C@H](n2cc(/C=C/Br)c(=O)[nH]c2=O)O[C@@H]1CO` [Example 6, 5-(E-2-Bromovinyl)-2'-deoxy-3'-0-ethoxycarbonyluridine], in the data set “in vitro [1]”, the MCC at 96 h is > 100 µg/mL. The figures for the IC50 in data set [2] (setting [5]) and in data set [2] (setting [6]) were 1100 nM and 0.43 µg/mL, respectively.
As for `CC(C)COC(=O)OC[C@H]1O[C@@H](n2cc(/C=C/Br)c(=O)[nH]c2=O)C[C@@H]1O` [Example 17, 5-(E-2-Bromovinyl)-5'-O-isobutoxycarbonyl-2'-deoxyuridine], the MCC at 96 h in the data set “in vitro [1]” was > 100 µg/mL. In addition, the IC50 in data set [2] (setting [5]) came out at 500 nM; in data set [2] (setting [6]), 0.22 µg/mL.
On to `CCCCC(=O)O[C@H]1C[C@H](n2cc(/C=C/Br)c(=O)[nH]c2=O)O[C@@H]1COC(=O)OCC` [Example 9, 5-(E-2-Bromovinyl)-2'-deoxy-5'-O-ethoxyarbonyl-3'-O-valeryluridine], for which, in “in vitro [1]”, the MCC at 96 h was > 100 µg/mL. Moreover, the figures for the IC50 in data set [2] (setting [5]) and in data set [2] (setting [6]) were 3000 nM and 1.5 µg/mL, respectively.
For the compound `CCOC(=O)OC[C@H]1O[C@@H](n2cc(/C=C/Br)c(=O)[nH]c2=O)C[C@@H]1OP(=O)([O-])[O-].[Na+].[Na+]` [Example 12, 5-(E-2-Bromovinyl)-2'-deoxy-5'-O-ethoxycarbonyluridine 3'-Phosphate Disodium Salt], in data set [4], the MTD is >100 µg/mL. In addition, the values for the IC50 in data set [2] (setting [7]) and in data set [2] (setting [8]) were 12 µg/mL and 23000 nM, respectively.
Take `CCOC(=O)OC[C@H]1O[C@@H](n2cc(/C=C/Br)c(=O)[nH]c2=O)C[C@@H]1OC(=O)CCC(=O)[O-].[Na+]` [Sodium Salt]: the MCC at 96 h in the data set “in vitro [3]” is > 100 µg/mL. The IC50 in data set [2] (setting [8]) came out at 12000 nM.
For `C=CCOC(=O)OC[C@H]1O[C@@H](n2cc(/C=C/Br)c(=O)[nH]c2=O)C[C@@H]1O` [Example 21, 5'-0-Allyloxycarbonyl-5-(E-2-bromovinyl)-2'-deoxyuridine], the MCC at 96 h in the data set “in vitro [1]” was > 100 µg/mL. Also, the results for the IC50 in data set [2] (setting [5]) and in data set [2] (setting [6]) were 1700 nM and 0.72 µg/mL, respectively.
As to `CCCCOC(=O)OC[C@H]1O[C@@H](n2cc(/C=C/Br)c(=O)[nH]c2=O)C[C@@H]1O` [Example 15, 5-(E-2-Bromovinyl)-5'-0-n-butoxycarbonyl-2'-deoxyuridine], the MCC at 96 h in the data set “in vitro [1]” is > 100 µg/mL. For the same compound, the IC50 in data set [2] (setting [5]) came to 600 nM; in data set [2] (setting [6]), 0.25 µg/mL.
Turning to `CC(C)(C)OC(=O)OC[C@H]1O[C@@H](n2cc(/C=C/Br)c(=O)[nH]c2=O)C[C@@H]1O` [Example 18, 5-(E-2-Bromovinyl)-5'-O-t-butoxycarbonyl-2'-deoxyuridine], the MCC at 96 h in the data set “in vitro [1]” is > 100 µg/mL. Also, the IC50 in data set [2] (setting [5]) came out at 700 nM; in data set [2] (setting [6]), 0.28 µg/mL.
With `COC(=O)OC[C@H]1O[C@@H](n2cc(/C=C/Br)c(=O)[nH]c2=O)C[C@@H]1O` [Example 3, 5-(E-2-Bromovinyl)-2'-deoxy-5'-O-methoxycarbonyluridine], in the data set “in vitro [1]”, the MCC at 96 h was > 100 µg/mL. Further, the IC50 in data set [2] (setting [5]) came out at 3800 nM; in data set [2] (setting [6]), 1.5 µg/mL.
Take `COC(=O)OC[C@H]1O[C@@H](n2cc(/C=C/Br)c(=O)[nH]c2=O)C[C@@H]1OC(=O)OC` [Example 1, 5-(E-2-Bromovinyl)-2'-deoxy-3',5'-bis-0-methoxycarbonyl-uridine]: in the data set “in vitro [1]”, the MCC at 96 h is > 100 µg/mL. Also, the IC50 was found to be 11800 nM in data set [2] (setting [5]) and 5.3 µg/mL in data set [2] (setting [6]).
`CCCCC(=O)O[C@H]1C[C@H](n2cc(/C=C/Br)c(=O)n(C(=O)CCCC)c2=O)O[C@@H]1COC(=O)OCC` [Example 8, 5-(E-2-Bromovinyl)-2'-deoxy-5'-0-ethoxycarbonyl-3,3'-0-bisvaleryluridine]: the MCC at 96 h in “in vitro [1]” was > 100 µg/mL. The IC50 in data set [2] (setting [5]) came to 3000 nM; in data set [2] (setting [6]), 1.7 µg/mL.
Consider `CC(C)COC(=O)OC[C@H]1O[C@@H](n2cc(/C=C/Br)c(=O)[nH]c2=O)C[C@@H]1OC(=O)OCC(C)C` [Example 16, 5-(E-2-Bromovinyl)-3',5'-bis-0-isobutoxycarbonyl-2'-deoxyuridine], for which the MCC at 96 h in “in vitro [1]” was 100 µg/mL. Besides, the IC50 in data set [2] (setting [5]) is 800 nM; in data set [2] (setting [6]) it was 0.44 µg/mL.
In turn, `O=C(OC[C@H]1O[C@@H](n2cc(/C=C/Br)c(=O)[nH]c2=O)C[C@@H]1O)Oc1ccc([N+](=O)[O-])cc1` [Example 24, 5-(E-2-Bromovinyl)-2'-deoxy-5'-O-(p-nitrophenoxycarbonyl)uridine] showed an MCC at 96 h in “in vitro [1]” of 100 µg/mL. The values for the IC50 in data set [2] (setting [5]) and in data set [2] (setting [6]) were 1200 nM and 0.6 µg/mL, respectively.
As to `O=C(OCc1ccccc1)OC[C@H]1O[C@@H](n2cc(/C=C/Br)c(=O)[nH]c2=O)C[C@@H]1O` [Example 22, 5'-O-Benzyloxycycarbonyl-5-(E-2-bromovinyl)-2'-deoxyuridine], in the data set “in vitro [1]”, the MCC at 96 h is > 100 µg/mL. In addition, the IC50 is 100 nM in data set [2] (setting [5]) and 0.05 µg/mL in data set [2] (setting [6]).
In the case of `CC(C)(C)OC(=O)O[C@H]1C[C@H](n2cc(/C=C/Br)c(=O)[nH]c2=O)O[C@@H]1CO` [Example 20, 5-(E-2-Bromovinyl)-3'-O-t-butoxycarbonyl-2^1-deoxyuridine], in “in vitro [1]”, the MCC at 96 h is > 100 µg/mL. In addition, the results for the IC50 in data set [2] (setting [5]) and in data set [2] (setting [6]) were 400 nM and 0.18 µg/mL, respectively.
As for `O=C(OC[C@H]1O[C@@H](n2cc(/C=C/Br)c(=O)[nH]c2=O)C[C@@H]1O)Oc1ccccc1` [Example 23, 5-(E-2-Bromovinyl)-5'-0-phenoxycarbonyl-2'-deoxyuridine], in the data set “in vitro [1]”, the MCC at 96 h was > 100 µg/mL. The IC50 was determined as 400 nM in data set [2] (setting [5]) and 0.18 µg/mL in data set [2] (setting [6]).
